Data: patent publication US20230357708A1, “BI[…] PARA-HYDROXYBENZOIC ACID FROM METHANOL AND METHANE” (The Board of Trustees of the Leland Stanford Junior …, priority 2020, published 2023)

What was measured:
[1] = test system: M. alcahphilum 20Z strain; test: 4HBA toxicity test, streaks on plates with horizontal 4HBA-gradient; type: cell-based, Methylomicrobium alcaliphilum; details: background-strain streaks, 4HBA-gradient 0-10 mM, pH 8.9
Description: (§1) Fast growers were mutants with changed 4HBA-operon sequence. Fast-growing mutant #1 produced some 4HBA. […] The toxic conditions in turn favoured re-arrangement and/or point mutations of the plasmid. Streaks of the transconjugants on solid medium without methanol, grew comparatively well The solid medium was supplemented with nutrient broth, NMS2.1kan and MeOH. Toxicity tests with varying 4HBA concentrations was performed.

[2] = test system: M. buryatense 5GB1 (5G) strain; test: as above; type: cell-based, Methylotuvimicrobium buryatense; details: background-strain streaks, 4HBA-gradient 0-10 mM, pH 8.9
Description: as §1

`O=C(O)c1ccc(O)cc1` [4HBA, para-hydroxybenzoic acid] was tested, and the “effect of 4HBA on growth” value [1] was “significant inhibitory effect”, the “effect of 4HBA on growth” value [2] was “significant inhibitory effect” and the “effect of 4HBA on growth compared with the M. alcahphilum 20Z strain” value [2] was “more severely affected”.
